Data on 24 compounds can be found in patent publication US8163771B2, “11 β-HSD1 modulators” (Exelixis, Inc., priority 2008, dated 2012).

Molecules are shown by their SMILES.

For this test, the target named is T1, recombinant human 11 β-HSD1 (Homo sapiens, UniProt P28845).
T1 construct: made in house; host or cells: E. coli
The experiment in a line: 11 β-HSD1 SPA Assay (Scintillation Proximity Assay). The class given is biochemical. Put shortly: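 Scintillation proximity read-out of cortisol formed from 40 nM [3H]cortisone by purified recombinant human enzyme (30-100 nM, E. coli) with 1 mM NADPH, pH7.4, 2 hours at room temperature; beads with cortisol antibody and glycyrrhetinic acid stop the reaction, read next day. IC50 derived from inhibition normalised to background and maximal wells.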
A general note: SPA uses beads or plates that emit light when radiolabelled molecules are held near them.

T1 sequence (P28845 whole entry): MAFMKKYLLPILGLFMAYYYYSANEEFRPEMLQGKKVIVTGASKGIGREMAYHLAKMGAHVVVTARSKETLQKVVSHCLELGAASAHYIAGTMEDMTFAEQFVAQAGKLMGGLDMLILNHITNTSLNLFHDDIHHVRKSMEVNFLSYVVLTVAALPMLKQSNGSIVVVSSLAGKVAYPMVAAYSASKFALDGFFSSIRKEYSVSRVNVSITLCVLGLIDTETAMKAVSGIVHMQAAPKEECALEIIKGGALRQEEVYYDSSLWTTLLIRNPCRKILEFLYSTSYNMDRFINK

Take `CC(C)(Oc1cc(OC(C)(C)C(=O)N[C@H]2C[C@H]3CC[C@@H](C2)N3c2ccc(C(=O)NCC(F)(F)F)cn2)c(Cl)cc1Cl)C(N)=O` [Example 426, 6-{3-endo-[(2-{5-[(1-amino-2-methyl-1-oxopropan-2-yl)oxy]-2,4-dichlorophenoxy}-2-methylpropanoyl)amino]-8-azabicyclo[3.2.1]oct-8-yl}-N-(2,2,2-trifluoroethyl)pyridine-3-carboxamide]: the IC50 – broadly, the concentration that inhibits the measured activity by half – was less than 200 nM.

Take `CC(C)(Oc1ccc(Cl)cc1OC(F)(F)F)C(=O)N[C@H]1C[C@H]2CC[C@@H](C1)N2c1ccc(C(=O)NC2(CO)CC2)cn1` [Example 427, 6-[3-endo-({2-[4-chloro-2-(trifluoromethoxy)phenoxy]-2-methylpropanoyl}amino)-8-azabicyclo[3.2.1]oct-8-yl]-N-[1-(hydroxymethyl)cyclopropyl] pyridine-3-carboxamide]: the IC50 is less than 200 nM.

Turning to `CC(C)(Oc1cc(CO)c(Cl)cc1Cl)C(=O)NC1CC2CCC(C1)N2c1ccc(C(=O)NCC(F)F)cn1` (stereo not drawn) [Example 428, 6-[3-endo-({2-[2,4-dichloro-5-(hydroxymethyl)phenoxy]-2-methylpropanoyl}amino)-8-azabicyclo[3.2.1]oct-8-yl]-N-(2,2-difluoroethyl)pyridine-3-carboxamide], the IC50 is less than 200 nM.

Turning to `CC(C)(Oc1cc(C(C)(C)O)c(Cl)cc1Cl)C(=O)N[C@H]1C[C@H]2CC[C@@H](C1)N2c1ccc(C(=O)NCC(F)F)cn1` [Example 429, 6-[3-endo-({2-[2,4-dichloro-5-(2-hydroxypropan-2-yl)phenoxy]-2-methylpropanoyl}amino)-8-azabicyclo[3.2.1]oct-8-yl]-N-(2,2-difluoroethyl)pyridine-3-carboxamide], the IC50 is less than 200 nM.

For `C[C@H](NC(=O)c1ccc(N2C3CCC2CC(NC(=O)C(C)(C)Oc2cc(F)c(F)cc2Cl)C3)nc1)C(F)(F)F` (stereo partly drawn) [Example 430, 6-(3-endo-{[2-(2-chloro-4,5-difluorophenoxy)-2-methylpropanoyl]amino}-8-azabicyclo[3.2.1]oct-8-yl)-N-[(2S)-1,1,1-trifluoropropan-2-yl]pyridine-3-carboxamide], the IC50 is less than 200 nM.

Take `C[C@H](NC(=O)c1ccc(N2C3CCC2CC(NC(=O)C(C)(C)Oc2ccc(F)cc2F)C3)nc1)C(F)(F)F` (stereo partly drawn) [Example 431, 6-(3-endo-{[2-(2,4-difluorophenoxy)-2-methylpropanoyl]amino}-8-azabicyclo[3.2.1]oct-8-yl)-N-[(2S)-1,1,1-trifluoropropan-2-yl]pyridine-3-carboxamide]: the IC50 was less than 200 nM.

Take `C[C@H](NC(=O)c1ccc(N2C3CCC2CC(NC(=O)C(C)(C)Oc2ccc(Cl)cc2S(C)(=O)=O)C3)nc1)C(F)(F)F` (stereo partly drawn) [Example 432, 6-[3-endo-({2-[4-chloro-2-(methylsulfonyl)phenoxy]-2-methylpropanoyl}amino)-8-azabicyclo[3.2.1]oct-8-yl]-N-[(2S)-1,1,1-trifluoropropan-2-yl]pyridine-3-carboxamide]: the IC50 is less than 2000 nM.

As for `CC(C)(Oc1ccc(Cl)cc1C(F)F)C(=O)N[C@H]1C[C@H]2CC[C@@H](C1)N2c1ccc(C(=O)NCC(F)F)cn1` [Example 433, 6-[3-endo-({2-[4-chloro-2-(difluoromethyl)phenoxy]-2-methylpropanoyl}amino)-8-azabicyclo[3.2.1]oct-8-yl]-N-(2,2-difluoroethyl)pyridine-3-carboxamide], the IC50 is less than 200 nM.

As to `C[C@H](NC(=O)c1ccc(N2C3CCC2CC(NC(=O)C(C)(C)Oc2ccc(F)cc2Cl)C3)nc1)C(F)(F)F` (stereo partly drawn) [Example 434, 6-(3-endo-{[2-(2-chloro-4-fluorophenoxy)-2-methylpropanoyl]amino}-8-azabicyclo[3.2.1]oct-8-yl)-N-[(2S)-1,1,1-trifluoropropan-2-yl]pyridine-3-carboxamide], the IC50 is less than 200 nM.

Take `C[C@H](NC(=O)c1ccc(N2C3CCC2CC(NC(=O)C(C)(C)Oc2ccc(Cl)cc2F)C3)nc1)C(F)(F)F` (stereo partly drawn) [Example 435, 6-(3-endo-{[2-(4-chloro-2-fluorophenoxy)-2-methylpropanoyl]amino}-8-azabicyclo[3.2.1]oct-8-yl)-N-[(2S)-1,1,1-trifluoropropan-2-yl]pyridine-3-carboxamide]: the IC50 was less than 200 nM.

`CC(C)(Oc1cc(F)c(Cl)cc1Cl)C(=O)N[C@H]1C[C@H]2CC[C@@H](C1)N2c1ccc(C(=O)NCC(F)F)cn1` [Example 436, 6-(3-endo-{[2-(2,4-dichloro-5-fluorophenoxy)-2-methylpropanoyl]amino}-8-azabicyclo[3.2.1]oct-8-yl)-N-(2,2-difluoroethyl)pyridine-3-carboxamide]: the IC50 is less than 200 nM.

Take `C[C@H](NC(=O)c1ccc(N2C3CCC2CC(NC(=O)C(C)(C)Oc2ccc(F)c(Cl)c2Cl)C3)nc1)C(F)(F)F` (stereo partly drawn) [Example 437, 6-(3-endo-{[2-(2,3-dichloro-4-fluorophenoxy)-2-methylpropanoyl]amino}-8-azabicyclo[3.2.1]oct-8-yl)-N-[(2S)-1,1,1-trifluoropropan-2-yl]pyridine-3-carboxamide]: the IC50 was less than 200 nM.

As for `CC(C)(O)CNC(=O)c1ccc(N2[C@@H]3CC[C@H]2C[C@@H](NC(=O)C(C)(C)Oc2ccc(Cl)cc2OC(F)(F)F)C3)nc1` [Example 438, 6-[3-endo-({2-[4-chloro-2-(trifluoromethoxy)phenoxy]-2-methylpropanoyl}amino)-8-azabicyclo[3.2.1]oct-8-yl]-N-(2-hydroxy-2-methylpropyl)pyridine-3-carboxamide], the IC50 is less than 200 nM.

In the case of `C[C@H](NC(=O)c1ccc(N2C3CCC2CC(NC(=O)C(C)(C)Oc2ncc(F)cc2C(F)F)C3)nc1)C(F)(F)F` (stereo partly drawn) [Example 439, 6-{3-endo-[(2-{[3-(difluoromethyl)-5-fluoropyridin-2-yl]oxy}-2-methylpropanoyl)amino]-8-azabicyclo[3.2.1]oct-8-yl}-N-[(2S)-1,1,1-trifluoropropan-2-yl]pyridine-3-carboxamide], the IC50 was less than 2000 nM.

Regarding `CC(C)(Oc1ncc(F)cc1C(F)F)C(=O)N[C@H]1C[C@H]2CC[C@@H](C1)N2c1ccc(C(=O)NCC(F)F)cn1` [Example 440, N-(2,2-difluoroethyl)-6-{3-endo-[(2-{[3-(difluoromethyl)-5-fluoropyridin-2-yl]oxy}-2-methylpropanoyl)amino]-8-azabicyclo[3.2.1]oct-8-yl}pyridine-3-carboxamide], the IC50 is less than 200 nM.

Take `CC(C)(Oc1ccc(F)c(Cl)c1Cl)C(=O)N[C@H]1C[C@H]2CC[C@@H](C1)N2c1ccc(C(=O)NCC(F)F)cn1` [Example 441, 6-(3-endo-{[2-(2,3-dichloro-4-fluorophenoxy)-2-methylpropanoyl]amino}-8-azabicyclo[3.2.1]oct-8-yl)-N-(2,2-difluoroethyl)pyridine-3-carboxamide]: the IC50 was less than 200 nM.

As to `CC(C)(Oc1cc(F)c(F)cc1Cl)C(=O)N[C@H]1C[C@H]2CC[C@@H](C1)N2c1ccc(C(=O)NCC(F)F)cn1` [Example 442, 6-(3-endo-{[2-(2-chloro-4,5-difluorophenoxy)-2-methylpropanoyl]amino}-8-azabicyclo[3.2.1]oct-8-yl)-N-(2,2-difluoroethyl)pyridine-3-carboxamide], the IC50 was less than 200 nM.

As for `CC(C)(Oc1ccc(F)cc1F)C(=O)N[C@H]1C[C@H]2CC[C@@H](C1)N2c1ccc(C(=O)NCC(F)F)cn1` [Example 443, N-(2,2-difluoroethyl)-6-(3-endo-{[2-(2,4-difluorophenoxy)-2-methylpropanoyl]amino}-8-azabicyclo[3.2.1]oct-8-yl)pyridine-3-carboxamide], the IC50 was less than 200 nM.

As for `CC(C)(Oc1cc(CC(=O)O)c(Cl)cc1Cl)C(=O)N[C@H]1C[C@H]2CC[C@@H](C1)N2c1ccc(C(=O)NCC(F)(F)F)cn1` [Example 444, [2,4-dichloro-5-({2-methyl-1-oxo-1-[(8-{5-[(2,2,2-trifluoroethyl)carbamoyl]pyridin-2-yl}-8-azabicyclo[3.2.1]oct-3-endo-yl)amino]propan-2-yl}oxy)phenyl]acetic acid], the 50% inhibitory concentration (IC50) was less than 200 nM.

`CC(C)(Oc1cc(C(C)(C)C(=O)O)c(Cl)cc1Cl)C(=O)N[C@H]1C[C@H]2CC[C@@H](C1)N2c1ccc(C(=O)NCC(F)(F)F)cn1` [Example 445, 2-[2,4-dichloro-5-({2-methyl-1-oxo-1-[(8-{5-[(2,2,2-trifluoroethyl)carbamoyl]pyridin-2-yl}-8-azabicyclo[3.2.1]oct-3-endo-yl)amino]propan-2-yl}oxy)phenyl]-2-methylpropanoic acid]: the IC50 is less than 200 nM.

With `CC(C)(Oc1cc(C(C)(C)C(N)=O)c(Cl)cc1Cl)C(=O)N[C@H]1C[C@H]2CC[C@@H](C1)N2c1ccc(C(=O)NCC(F)(F)F)cn1` [Example 446, 6-[3-endo-({2-[5-(1-amino-2-methyl-1-oxopropan-2-yl)-2,4-dichlorophenoxy]-2-methylpropanoyl}amino)-8-azabicyclo[3.2.1]oct-8-yl]-N-(2,2,2-trifluoroethyl)pyridine-3-carboxamide], the IC50 is less than 200 nM.

Turning to `CC(C)(Oc1ccc(Cl)cc1F)C(=O)N[C@H]1C[C@H]2CC[C@@H](C1)N2c1ccc(C(=O)NCC(F)F)cn1` [Example 447, 6-(3-endo-{[2-(4-chloro-2-fluorophenoxy)-2-methylpropanoyl]amino}-8-azabicyclo[3.2.1]oct-8-yl)-N-(2,2-difluoroethyl)pyridine-3-carboxamide], the IC50 was less than 200 nM.

Take `CC(C)(Oc1ccc(Cl)cc1OC(F)(F)F)C(=O)NC1CC2CCC(C1)N2c1ccc(C(=O)NCC(O)C(F)(F)F)cn1` (stereo not drawn) [Example 448, 6-[3-endo-({2-[4-chloro-2-(trifluoromethoxy)phenoxy]-2-methylpropanoyl}amino)-8-azabicyclo[3.2.1]oct-8-yl]-N-(3,3,3-trifluoro-2-hydroxypropyl)pyridine-3-carboxamide]: the IC50 is less than 200 nM.

With `CC(C)(Oc1ccc(Cl)cc1C(F)F)C(=O)NC1CC2CCC(C1)N2c1ccc(C(=O)NCC(O)C(F)(F)F)cn1` (stereo not drawn) [Example 449, 6-[3-endo-({2-[4-chloro-2-(difluoromethyl)phenoxy]-2-methylpropanoyl}amino)-8-azabicyclo[3.2.1]oct-8-yl]-N-(3,3,3-trifluoro-2-hydroxypropyl)pyridine-3-carboxamide], the IC50 was less than 200 nM.
